Results published in ChEMBL document CHEMBL1800060, “Enhancement of transcriptional activity of mutant p53 tumor suppressor protein through stabilization of tetramer formation by calix[6]arene derivatives” (Bioorg Med Chem Lett, 2010).
The source made the active and inactive calls. No cut-off for these calls is given here.

What was measured:
[1] = tested on: Cellular tumor antigen p53 (Homo sapiens), P04637 [R273H]; assay: Enhancement of transcriptional activity of p53 DNA binding domain Arg273His mutant in NCI-H1299 cells transfected p53RE-mCherry(NLS) reporter plasmid assessed as increase in fluorescence signal at 20 uM after 11 hrs by fluorescence assay; type: cell-based
[2] = tested on: Cellular tumor antigen p53 (Homo sapiens), P04637 [R337H]; assay: Enhancement of transcriptional activity of EGFP tagged p53 tetramerization domain-Arg337His mutant peptide in NCI-H1299 cells transfected with p53RE-mCherry(NLS) reporter plasmid assessed as increase in fluorescence signal at 20 uM after 11 hrs by fluorescence assay; type: cell-based
[3] = target: Cellular tumor antigen p53 (Homo sapiens) (UniProt P04637); assay: Enhancement of transcriptional activity of wild type p53 in NCI-H1299 cells transfectedp53RE-mCherry(NLS) reporter plasmid assessed as increase in fluorescence signal at 20 uM after 11 hrs by fluorescence assay; type: cell-based
[4] = tested on: Cellular tumor antigen p53 (Homo sapiens), P04637 [R337H]; assay: Thermal stabilization of p53 tetramerization domain-Arg337His mutant peptide assessed as change in transition temperature at 10 uM by CD spectroscopy
[5] = tested on: Cellular tumor antigen p53 (Homo sapiens), P04637 [R337H]; assay: Thermal stabilization of p53 tetramerization domain-Arg337His mutant peptide assessed as change in transition temperature at 40 uM by CD spectroscopy
[6] = tested on: Cellular tumor antigen p53 (Homo sapiens), P04637 [R337H]; assay: Enhancement of transcriptional activity of EGFP tagged p53 tetramerization domain-Arg337His mutant peptide in NCI-H1299 cells transfected with p53RE-mCherry(NLS) reporter plasmid assessed as increase in fluorescence signal at 20 uM after 11 hrs by fluorescence assay relative to untreated control; type: cell-based

SMILES: COc1c2cc(Cn3ccnc3)cc1Cc1cc(Cn3ccnc3)cc(c1OC)Cc1cc(Cn3ccnc3)cc(c1OC)Cc1cc(Cn3ccnc3)cc(c1OC)Cc1cc(Cn3ccnc3)cc(c1OC)Cc1cc(Cn3ccnc3)cc(c1OC)C2
- Activity [1]: inactive
- Activity [2]: Active
- Activity [3]: Active
- deltaT [4]: 2.3 °C
- deltaT [5]: 4.1 °C
- Activity [6]: 130%

SMILES: N=C(N)NCc1cc2c3c(c1)Cc1cc(CNC(=N)N)cc4c1OCCOCCOc1c(cc(CNC(=N)N)cc1Cc1cc(CNC(=N)N)cc(c1OCCOCCO3)C2)C4
- Activity [2]: inactive
- deltaT [4]: 0.3 °C
- deltaT [5]: -0.3 °C

SMILES: COc1c2cc(Cn3cccn3)cc1Cc1cc(Cn3cccn3)cc(c1OC)Cc1cc(Cn3cccn3)cc(c1OC)Cc1cc(Cn3cccn3)cc(c1OC)Cc1cc(Cn3cccn3)cc(c1OC)Cc1cc(Cn3cccn3)cc(c1OC)C2
- deltaT [4]: 0 °C
